In patent US10899738B2 (THE REGENTS OF THE UNIVERSITY OF MICHIGAN, priority 2016, dated 2021):

What follows are compounds tested against menin protein (Homo sapiens (Human), UniProt O00255) (assay: biochemical). Conditions: FP competitive binding; menin protein 4 nM, FAM-MM2 probe 2 nM.
Chain of menin protein (O00255 whole entry): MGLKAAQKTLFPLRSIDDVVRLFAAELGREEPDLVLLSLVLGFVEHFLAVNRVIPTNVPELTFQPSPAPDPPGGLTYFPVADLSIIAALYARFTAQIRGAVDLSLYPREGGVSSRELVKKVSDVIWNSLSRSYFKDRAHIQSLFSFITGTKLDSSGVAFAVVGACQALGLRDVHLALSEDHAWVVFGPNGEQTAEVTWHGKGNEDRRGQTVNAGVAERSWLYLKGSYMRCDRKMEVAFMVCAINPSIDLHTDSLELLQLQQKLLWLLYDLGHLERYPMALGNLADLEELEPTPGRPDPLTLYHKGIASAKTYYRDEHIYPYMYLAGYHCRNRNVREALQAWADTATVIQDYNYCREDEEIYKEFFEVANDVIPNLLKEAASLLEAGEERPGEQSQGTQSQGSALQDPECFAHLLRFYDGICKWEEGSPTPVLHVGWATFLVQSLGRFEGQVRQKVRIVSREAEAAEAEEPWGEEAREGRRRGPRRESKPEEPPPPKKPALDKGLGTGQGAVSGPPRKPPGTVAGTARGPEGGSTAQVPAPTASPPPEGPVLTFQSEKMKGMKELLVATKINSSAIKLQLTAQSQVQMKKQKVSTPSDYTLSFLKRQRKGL
Assay type: binding
Experimental: A fluorescence polarization (FP) competitive binding assay was used to determine the binding affinities of representative menin inhibitors. A FAM labeled fluorescent probe was designed and synthesized based on a MLL1 peptide (FAM-MM2). Equilibrium dissociation constant (Kd) value of FAM-MM2 to menin protein was determined from protein saturation experiments by monitoring the total fluorescence polarization of mixtures composed with the fluorescent probe at a fixed concentration and the protein with increasing concentrations up to full saturation. Serial dilutions of the protein were mixed with FAM-MM2 to a final volume of 200 μl in the assay buffer (PBS with 0.02% Bovine γ-Globulin and 4% DMSO. 0.01% Triton X-100 was added right before assays). Final FAM-MM2 concentration was 2 nM. Plates were incubated at room temperature for 30 minutes with gentle shaking to assure equilibrium.
The IC50, see Table 3, and Ki values of representative Compounds of the Disclosure were determined in a competitive binding experiment. Mixtures of 5 μl of the tested compounds in DMSO and 195 μl of preincubated protein/probe complex solution in the assay buffer were added into assay plates which were incubated at room temperature for 30 minutes with gentle shaking. Final concentration of the menin protein was 4 nM, and final probe concentration is 2 nM. […] FP values were measured as described above. IC50 values were determined by nonlinear regression fitting of the competition curves.
With CC(=O)O[C@@H]1CCC[C@H]1C(C#N)(c1ccccc1)C1CCN(CC#Cc2ccc(C#N)cc2)CC1 (mixture of isomers) [compound 387, rac-(1R,2S)-2-(cyano(1-(3-(4-cyanophenyl)prop-2-yn-1-yl)piperidin-4-yl)(phenyl)methyl)cyclopentyl acetate] the “Menin Binding Affinity IC50 (μM)” value was “No inhibition”.

Same assay, conditions: FP competitive binding; menin protein 4 nM, FAM-MM2 probe 2 nM; read-out: Menin Binding Affinity IC50
With CNC(=O)O[C@H]1CCC[C@@H]1C(Cn1ccnc1)(c1ccccc1)C1CCN(CC2CN(c3ccc(S(=O)(=O)C4COC4)cc3)C2)CC1 (mixture of isomers) [compound 412, rac-(1S,2R)-2-(2-(1H-imidazol-1-yl)-1-(1-((1-(4-(oxetan-3-ylsulfonyl)phenyl)azetidin-3-yl)methyl)piperidin-4-yl)-1-phenylethyl)cyclopentyl methylcarbamate] the IC50 was 0.004 µM.
CC(=O)NCC(c1ccccc1)(C1CCCC1)C1CCN(CCCOc2ccc(C#N)cc2)CC1 (centres unmarked) [compound 40, N-(2-(1-(3-(4-cyanophenoxy)propyl)piperidin-4-yl)-2-cyclopentyl-2-phenylethyl)acetamide] was tested, and the IC50 was 0.817 µM.
In the case of N#CC(c1ccccc1)(C1CCN(CC2CN(c3ccc(S(=O)(=O)c4ccncc4)cc3)C2)CC1)[C@@H]1CCC[C@H]1OC(=O)N1CCC1 (mixture of isomers) [compound 222, rac-(1R,2S)-2-(cyano(phenyl)(1-((1-(4-(pyridin-4-ylsulfonyl)phenyl)azetidin-3-yl)methyl)piperidin-4-yl)methyl)cyclopentyl azetidine-1-carboxylate], the IC50 is reported as 2 µM.
Work on CS(=O)(=O)N[C@@H]1CCC[C@H]1C(C#N)(c1ccccc1)C1CCN(CC2CN(c3ccc(S(=O)(=O)c4ccncc4)cc3)C2)CC1 (mixture of isomers) [compound 268, rac-N-((1R,2S)-2-(cyano(phenyl)(1-((1-(4-(pyridin-4-ylsulfonyl)phenyl)azetidin-3-yl)methyl)piperidin-4-yl)methyl)cyclopentyl) methanesulfonamide] yielded an IC50 of 4.7 µM.
O=S(=O)(c1ccncc1)c1ccc(N2CC(CN3CCC(C4(C5CCCC5)CN(CCN5CCOCC5)Cc5ccccc54)CC3)C2)cc1 (centres unmarked) [compound 54, 4-(2-(4-cyclopentyl-4-(1-((1-(4-(pyridin-4-ylsulfonyl)phenyl)azetidin-3-yl)methyl)piperidin-4-yl)-3,4-dihydroisoquinolin-2(1H)-yl)ethyl)morpholine] showed an IC50 of 0.011 µM.
N#CC(c1ccccc1)(C1CCN(CC2CN(c3ccc(S(=O)(=O)c4ccncc4)cc3)C2)CC1)[C@@H]1CCC[C@H]1OC(=O)C1CC1 (mixture of isomers) [compound 198, rac-(1R,2S)-2-(cyano(phenyl)(1-((1-(4-(pyridin-4-ylsulfonyl)phenyl)azetidin-3-yl)methyl)piperidin-4-yl)methyl)cyclopentyl cyclopropanecarboxylate] gave an IC50 of 0.853 µM.
Work on N#Cc1ccc2[nH]c(CCN3CCC(C4(C5CCCC5)NCCc5ccccc54)CC3)cc2c1 (centres unmarked) [compound 67, 2-(2-(4-(1-cyclopentyl-1,2,3,4-tetrahydroisoquinolin-1-yl)piperidin-1-yl)ethyl)-1H-indole-5-carbonitrile] yielded an IC50 of 1.2 µM.
Compound CNC(=O)O[C@@H]1CCC[C@H]1C(C#N)(c1ccccc1)C1CCN(CC2CN(c3ccc(C(C)(C)C)cc3)C2)CC1 (mixture of isomers) [compound 423, rac-(1R,2S)-2-((1-((1-(4-(tert-butyl)phenyl)azetidin-3-yl)methyl)piperidin-4-yl)(cyano)(phenyl)methyl) cyclopentyl methylcarbamate] has an IC50 of 0.776 µM.
In the case of CCS(=O)(=O)c1ccc(N2CC(CN3CCC(C4(C5CCCC5)CN(C)Cc5ccccc54)CC3)C2)cc1 (centres unmarked) [compound 69, 4-cyclopentyl-4-(1-((1-(4-(ethylsulfonyl)phenyl)azetidin-3-yl)methyl)piperidin-4-yl)-2-methyl-1,2,3,4-tetrahydroisoquinoline], the IC50 is reported as 0.03 µM.
CNC(=O)O[C@@H]1CCC[C@H]1C(C#N)(c1ccccc1)C1CCN(CC2(F)CN(c3ccc(S(=O)(=O)c4cnn(C)c4)cc3)C2)CC1 (mixture of isomers) [compound 370, rac-(1R,2S)-2-(cyano(1-((3-fluoro-1-(4-((1-methyl-1H-pyrazol-4-yl)sulfonyl)phenyl)azetidin-3-yl)methyl)piperidin-4-yl)(phenyl)methyl)cyclopentyl methylcarbamate] showed an IC50 of 3.6 µM.
With O=S(=O)(c1ccc(N2CC(CN3CCC(C4(C5CCCC5)NCCc5ccccc54)CC3)C2)cc1)C1CCOCC1 (centres unmarked) [compound 97, 1-cyclopentyl-1-(1-((1-(4-((tetrahydro-2H-pyran-4-yl)sulfonyl)phenyl)azetidin-3-yl)methyl)piperidin-4-yl)-1,2,3,4-tetrahydroisoquinoline] the IC50 was 0.049 µM.
For N#Cc1ccc(N2CC(CN3CCC(C4(C5CCCC5)NCCc5ccccc54)CC3)C2)cn1 (centres unmarked) [compound 109, 5-(3-((4-(1-cyclopentyl-1,2,3,4-tetrahydroisoquinolin-1-yl)piperidin-1-yl)methyl)azetidin-1-yl)picolinonitrile], the IC50 was 0.825 µM.
Compound CCc1cc(S(=O)(=O)c2ccc(N3CC(CN4CCC(C5(C6CCCC6)CN(CC)Cc6ccccc65)CC4)C3)cc2)ccn1 (centres unmarked) [compound 155, 4-cyclopentyl-2-ethyl-4-(1-((1-(4-((2-ethylpyridin-4-yl)sulfonyl)phenyl)azetidin-3-yl)methyl)piperidin-4-yl)-1,2,3,4-tetrahydroisoquinoline] has an IC50 of 0.016 µM.
For CN1CCC(C2(C3CCCCN3)CN(C)Cc3ccccc32)CC1 (centres unmarked) [compound 166, 2-methyl-4-(1-methylpiperidin-4-yl)-4-(piperidin-2-yl)-1,2,3,4-tetrahydroisoquinoline], the IC50 was 1410 µM.
Work on COC[C@@H]1CCC[C@H]1C(C#N)(c1ccccc1)C1CCN(CC2CN(c3ccc(S(=O)(=O)C4CC4)cc3)C2)CC1 (mixture of isomers) [compound 266, rac-2-(1-((1-(4-(cyclopropylsulfonyl)phenyl)azetidin-3-yl)methyl)piperidin-4-yl)-2-((1R,2R)-2-(methoxymethyl)cyclopentyl)-2-phenylacetonitrile] yielded an IC50 of 4.5 µM.
For CCC(CC)C1(C2CCN(CCCOc3ccc(C#N)cc3)CC2)NCCc2ccccc21 (centres unmarked) [compound 249, 4-(3-(4-(1-(pentan-3-yl)-1,2,3,4-tetrahydroisoquinolin-1-yl)piperidin-1-yl)propoxy)benzonitrile], the IC50 was 1.9 µM.
N#Cc1ccc(OCCCN2CCC(C(C#N)(Cc3ccncc3)c3ccccc3)CC2)cc1 (centres unmarked) [compound 344, 4-(3-(4-(1-cyano-1-phenyl-2-(pyridin-4-yl)ethyl)piperidin-1-yl)propoxy)benzonitrile] showed an IC50 of 180 µM.
In the case of CC(C)C(=O)N1CCCCC1C1(C2CCN(CCCOc3ccc(C#N)cc3)CC2)CN(C)Cc2ccccc21 (centres unmarked) [compound 299, 4-(3-(4-(4-(1-isobutyrylpiperidin-2-yl)-2-methyl-1,2,3,4-tetrahydroisoquinolin-4-yl)piperidin-1-yl)propoxy)benzonitrile], the IC50 is reported as 16.8 µM.
N#Cc1ccc(OCCCN2CCC(C3(C4CCCS4(=O)=O)NCCc4ccccc43)CC2)cc1 (centres unmarked) [compound 304, 4-(3-(4-(1-(1,1-dioxidotetrahydrothiophen-2-yl)-1,2,3,4-tetrahydroisoquinolin-1-yl)piperidin-1-yl)propoxy)benzonitrile] showed an IC50 of 10.7 µM.
In the case of Cc1cc(S(=O)(=O)c2ccc(N3CC(CN4CCC(C5(C6=CCCC6)CN(C)Cc6ccccc65)CC4)C3)cc2)ccn1 (centres unmarked) [compound 205, 4-(cyclopent-1-en-1-yl)-2-methyl-4-(1-((1-(4-((2-methylpyridin-4-yl)sulfonyl)phenyl)azetidin-3-yl)methyl)piperidin-4-yl)-1,2,3,4-tetrahydroisoquinoline], the IC50 is reported as 0.088 µM.
For CCCC(C)C1(C2CCN(CCCOc3ccc(C#N)cc3)CC2)NCCc2ccccc21 (centres unmarked) [compound 245, 4-(3-(4-(1-(pentan-2-yl)-1,2,3,4-tetrahydroisoquinolin-1-yl)piperidin-1-yl)propoxy)benzonitrile], the IC50 was 3.3 µM.
Work on COC(=O)N[C@H]1CCC[C@@H]1C(C#N)(c1ccccc1)C1CCN(CCC#Cc2ccc(S(=O)(=O)C(F)(F)F)cc2)CC1 (mixture of isomers) [compound 405, methyl rac-((1S,2R)-2-(cyano(phenyl)(1-(4-(4-((trifluoromethyl)sulfonyl)phenyl)but-3-yn-1-yl)piperidin-4-yl)methyl)cyclopentyl)carbamate] yielded an IC50 of 0.174 µM.
For COC(=O)[C@H]1CCC[C@@H]1C(C#N)(c1ccccc1)C1CCN(CC2CN(c3ccc(S(=O)(=O)C4CC4)cc3)C2)CC1 (mixture of isomers) [compound 332, methyl rac-(1S,2S)-2-(cyano(1-((1-(4-(cyclopropylsulfonyl)phenyl)azetidin-3-yl)methyl)piperidin-4-yl)(phenyl)methyl)cyclopentane-1-carboxylate], the IC50 was 0.261 µM.
COC(=O)[C@@H]1CCC[C@H]1C(C#N)(c1ccccc1)C1CCN(CC2CN(c3ccc(S(=O)(=O)C4CC4)cc3)C2)CC1 (mixture of isomers) [compound 333, methyl rac-(1R,2R)-2-(cyano(1-((1-(4-(cyclopropylsulfonyl)phenyl)azetidin-3-yl)(phenyl)methyl)cyclopentane-1-carboxylate] was tested, and the IC50 was 5.1 µM.
CC(C)(C)S(=O)(=O)c1ccc(N2CC(CN3CCC(C4(C5CCCC5)NCCc5ccccc54)CC3)C2)cc1 (centres unmarked) [compound 87, 1-(1-((1-(4-(tert-butylsulfonyl)phenyl)azetidin-3-yl)methyl)piperidin-4-yl)-1-cyclopentyl-1,2,3,4-tetrahydroisoquinoline] gave an IC50 of 0.122 µM.
